Assay results from the NIST ThermoML archive (doi:10.1016/j.jct.2019.04.010).
± gives the expanded uncertainty stated by the source.

Columns and labels:
[1] = xn = mol fraction of the nth substance listed; details: 100 kPa, Liquid, x2 = 0; for viscosity: Concentric cylinders viscometry; for mass density: Vibrating tube method
[2] = 100 kPa, Liquid; for viscosity: Concentric cylinders viscometry; for mass density: Vibrating tube method

Row | Compound | viscosity ([1]; 293.15 K) [mPa·s] | mass density ([1]; 293.15 K) [kg/m3] | viscosity ([1]; 298.15 K) [mPa·s] | mass density ([1]; 298.15 K) [kg/m3] | viscosity ([1]; 303.15 K) [mPa·s] | mass density ([1]; 303.15 K) [kg/m3] | viscosity ([1]; 308.15 K) [mPa·s] | mass density ([1]; 308.15 K) [kg/m3] | viscosity ([1]; 313.15 K) [mPa·s] | mass density ([1]; 313.15 K) [kg/m3] | viscosity ([1]; 318.15 K) [mPa·s] | mass density ([1]; 318.15 K) [kg/m3] | viscosity ([1]; 323.15 K) [mPa·s] | mass density ([1]; 323.15 K) [kg/m3] | other results
1 | CC(C)O [propan-2-ol] + CCCCn1cc[n+](C)c1.O=[N+]([O-])[O-] | 2.42 ± 0.48 | 785.4 ± 1 | 2.08 ± 0.42 | 781.1 ± 1 | 1.8 ± 0.36 | 776.8 ± 1 | 1.56 ± 0.31 | 772.4 ± 1 | 1.36 ± 0.27 | 768 ± 1 | 1.19 ± 0.24 | 763.4 ± 1 | 1.05 ± 0.21 | 758.8 ± 1 | –
2 | CCC(C)O (stereo unspecified) [butan-2-ol] + CCCCn1cc[n+](C)c1.O=[N+]([O-])[O-] | 3.67 ± 0.73 | 806.7 ± 1 | 3.04 ± 0.61 | 802.7 ± 1 | 2.54 ± 0.51 | 798.4 ± 1 | 2.13 ± 0.43 | 794.1 ± 1 | 1.8 ± 0.36 | 789.8 ± 1 | 1.54 ± 0.31 | 785.2 ± 1 | 1.33 ± 0.27 | 780.6 ± 1 | –
3 | CCCC(C)O (stereo unspecified) [pentan-2-ol] + CCCCn1cc[n+](C)c1.O=[N+]([O-])[O-] | 3.97 ± 0.79 | 809.3 ± 1 | 3.32 ± 0.66 | 805.3 ± 1 | 2.81 ± 0.56 | 801.2 ± 1 | 2.37 ± 0.47 | 797 ± 1 | 1.99 ± 0.4 | 792.7 ± 1 | 1.66 ± 0.33 | 788.4 ± 1 | 1.39 ± 0.28 | 784 ± 1 | –
4 | CCCCn1cc[n+](C)c1.O=[N+]([O-])[O-] [1-butyl-3-methylimidazolium nitrate] | – | – | – | – | – | – | – | – | – | – | – | – | – | – | viscosity ([2]; 293.15 K): 223.54 ± 45 mPa·s; mass density ([2]; 293.15 K): 1158.3 ± 1.5 kg/m3; viscosity ([2]; 298.15 K): 168.97 ± 34 mPa·s; mass density ([2]; 298.15 K): 1155.2 ± 1.5 kg/m3; viscosity ([2]; 303.15 K): 125.36 ± 25 mPa·s; mass density ([2]; 303.15 K): 1152.3 ± 1.5 kg/m3; viscosity ([2]; 308.15 K): 96.74 ± 19 mPa·s; mass density ([2]; 308.15 K): 1149.3 ± 1.5 kg/m3; viscosity ([2]; 313.15 K): 75.12 ± 15 mPa·s; mass density ([2]; 313.15 K): 1146.5 ± 1.5 kg/m3; viscosity ([2]; 318.15 K): 56.28 ± 11 mPa·s; mass density ([2]; 318.15 K): 1143.8 ± 1.4 kg/m3; viscosity ([2]; 323.15 K): 45.17 ± 9.1 mPa·s; mass density ([2]; 323.15 K): 1141.2 ± 1.4 kg/m3
